Laboratory results as given in ChEMBL document CHEMBL1125393, “5-(Aminomethyl)-3-aryldihydrofuran-2(3H)-ones, a new class of monoamine oxidase-B inactivators” (J Med Chem, 1992).
pKi: −log10 of the molar value.

Assays:
[1] = molecular target: T1, Amine oxidase [flavin-containing] B (Bos taurus, UniProt P56560); assay: Inactivation constant against beef liver mitochondrial monoamine oxidase-B (MAO-B); conditions: cattle
T1 sequence (P56560 whole entry): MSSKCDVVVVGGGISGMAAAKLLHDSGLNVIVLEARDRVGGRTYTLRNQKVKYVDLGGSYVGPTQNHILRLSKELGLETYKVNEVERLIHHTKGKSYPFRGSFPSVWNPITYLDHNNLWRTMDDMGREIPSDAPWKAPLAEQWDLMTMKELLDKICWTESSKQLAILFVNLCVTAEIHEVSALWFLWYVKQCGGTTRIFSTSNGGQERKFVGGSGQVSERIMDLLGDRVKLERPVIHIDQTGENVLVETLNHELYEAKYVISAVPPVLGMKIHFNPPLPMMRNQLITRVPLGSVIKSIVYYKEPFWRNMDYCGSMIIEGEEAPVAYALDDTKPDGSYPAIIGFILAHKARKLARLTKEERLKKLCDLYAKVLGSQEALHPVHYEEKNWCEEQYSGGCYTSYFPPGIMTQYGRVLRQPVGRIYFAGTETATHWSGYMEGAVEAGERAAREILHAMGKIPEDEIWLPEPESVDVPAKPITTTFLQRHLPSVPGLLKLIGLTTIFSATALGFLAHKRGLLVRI

[2] = molecular target: T1, Amine oxidase [flavin-containing] B; assay: Inhibitory constant against beef liver mitochondrial monoamine oxidase-B (MAO-B)

SMILES	kinact [1]	pKi [2]
COc1ccc(N2CC(CN)OC2=O)cc1 (stereo not given)	0.0133 s⁻¹	1.90
NC[C@@H]1C[C@H](c2ccccc2)C(=O)O1	0.0428 s⁻¹	2.38
COc1ccc([C@H]2C[C@@H](CN)OC2=O)cc1	0.074 s⁻¹	2.18
NC[C@@H]1C[C@@H](c2ccccc2)C(=O)O1	0.0357 s⁻¹	2.29
COc1ccc([C@@H]2C[C@@H](CN)OC2=O)cc1	0.383 s⁻¹	1.74
